system: DMS-273; test: cells; assay type: functional, cell-based; conditions: Homo sapiens
Description: SANGER: Inhibition of human DMS-273 cell growth in a cell viability assay.

Row | SMILES | IC50
1 | Cc1ccc(-n2nc(C(C)(C)C)cc2NC(=O)Nc2ccc(OCCN3CCOCC3)c3ccccc23)cc1 [DORAMAPIMOD] | > 10 µM

system: FTC-133; test: cells; assay type: functional, cell-based; conditions: Homo sapiens

Row | SMILES | IC50
2 | Cc1ccc(-n2nc(C(C)(C)C)cc2NC(=O)Nc2ccc(OCCN3CCOCC3)c3ccccc23)cc1 [DORAMAPIMOD] | > 10 µM

system: G-402; test: cells; assay type: functional, cell-based; conditions: Homo sapiens
Description: SANGER: Inhibition of human G-402 cell growth in a cell viability assay.

Row | SMILES | IC50
3 | Cc1ccc(-n2nc(C(C)(C)C)cc2NC(=O)Nc2ccc(OCCN3CCOCC3)c3ccccc23)cc1 [DORAMAPIMOD] | > 10 µM

system: GCT; test: cells; assay type: functional, cell-based; conditions: Homo sapiens;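 note: GCT cell line proliferation inhibition, read out with a cell viability assay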
Description: SANGER: Inhibition of human GCT cell growth in a cell viability assay.

Row | SMILES | IC50
4 | Cc1ccc(-n2nc(C(C)(C)C)cc2NC(=O)Nc2ccc(OCCN3CCOCC3)c3ccccc23)cc1 [DORAMAPIMOD] | > 10 µM

system: HCC1937; test: cells; assay type: functional, cell-based; conditions: Homo sapiens;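 note: growth inhibition measured with a cell viability read-out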
Description: SANGER: Inhibition of human HCC1937 cell growth in a cell viability assay.

Row | SMILES | IC50
5 | Cc1ccc(-n2nc(C(C)(C)C)cc2NC(=O)Nc2ccc(OCCN3CCOCC3)c3ccccc23)cc1 [DORAMAPIMOD] | > 10 µM

system: HCC 2998; test: cells; assay type: functional, cell-based; conditions: Homo sapiens;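 note: growth inhibition of human HCC2998 cells, measured with a cell viability read-out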
Description: SANGER: Inhibition of human HCC2998 cell growth in a cell viability assay.

Row | SMILES | IC50
6 | Cc1ccc(-n2nc(C(C)(C)C)cc2NC(=O)Nc2ccc(OCCN3CCOCC3)c3ccccc23)cc1 [DORAMAPIMOD] | > 10 µM

system: HCT-116; test: cells; assay type: functional, cell-based; conditions: Homo sapiens
Description: SANGER: Inhibition of human HCT-116 cell growth in a cell viability assay.

Row | SMILES | IC50
7 | Cc1ccc(-n2nc(C(C)(C)C)cc2NC(=O)Nc2ccc(OCCN3CCOCC3)c3ccccc23)cc1 [DORAMAPIMOD] | > 10 µM

system: HSC-2; test: cells; assay type: functional, cell-based; conditions: Homo sapiens;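 note: growth inhibition of human HSC-2 cells, read out by a cell viability assay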
Description: SANGER: Inhibition of human HSC-2 cell growth in a cell viability assay.

Row | SMILES | IC50
8 | Cc1ccc(-n2nc(C(C)(C)C)cc2NC(=O)Nc2ccc(OCCN3CCOCC3)c3ccccc23)cc1 [DORAMAPIMOD] | > 10 µM

system: HT-29; test: cells; assay type: functional, cell-based; conditions: Homo sapiens;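 note: growth inhibition of human HT-29 cells, read out by a cell viability assay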
Description: SANGER: Inhibition of human HT-29 cell growth in a cell viability assay.

Row | SMILES | IC50
9 | Cc1ccc(-n2nc(C(C)(C)C)cc2NC(=O)Nc2ccc(OCCN3CCOCC3)c3ccccc23)cc1 [DORAMAPIMOD] | > 10 µM

system: HuTu80; test: cells; assay type: functional, cell-based, Homo sapiens, HUTU-80; conditions: Homo sapiens, HuTu80;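 note: growth inhibition of HuTu80 human cells, determined with a cell viability readout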
Description: SANGER: Inhibition of human HUTU-80 cell growth in a cell viability assay.

Row | SMILES | IC50
10 | Cc1ccc(-n2nc(C(C)(C)C)cc2NC(=O)Nc2ccc(OCCN3CCOCC3)c3ccccc23)cc1 [DORAMAPIMOD] | > 10 µM

system: JEG-3; test: cells; assay type: functional, cell-based; conditions: Homo sapiens;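 note: growth inhibition of human JEG-3 cells, read out with a cell viability assay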
Description: SANGER: Inhibition of human JEG-3 cell growth in a cell viability assay.

Row | SMILES | IC50
11 | Cc1ccc(-n2nc(C(C)(C)C)cc2NC(=O)Nc2ccc(OCCN3CCOCC3)c3ccccc23)cc1 [DORAMAPIMOD] | > 10 µM

system: KYSE-140; test: cells; assay type: functional, cell-based; conditions: Homo sapiens;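 note: cell viability assay measuring growth inhibition in human KYSE-140 cells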
Description: SANGER: Inhibition of human KYSE-140 cell growth in a cell viability assay.

Row | SMILES | IC50
12 | Cc1ccc(-n2nc(C(C)(C)C)cc2NC(=O)Nc2ccc(OCCN3CCOCC3)c3ccccc23)cc1 [DORAMAPIMOD] | > 10 µM

system: KYSE-150 cell line; test: cells; assay type: functional, cell-based; conditions: Homo sapiens;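 note: growth inhibition of human KYSE-150 cells, read out with a cell viability assay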
Description: SANGER: Inhibition of human KYSE-150 cell growth in a cell viability assay.

Row | SMILES | IC50
13 | Cc1ccc(-n2nc(C(C)(C)C)cc2NC(=O)Nc2ccc(OCCN3CCOCC3)c3ccccc23)cc1 [DORAMAPIMOD] | > 10 µM

system: KYSE-510; test: cells; assay type: functional, cell-based; conditions: Homo sapiens;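 note: cell viability readout used to measure how strongly growth of the cell line is suppressed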
Description: SANGER: Inhibition of human KYSE-510 cell growth in a cell viability assay.

Row | SMILES | IC50
14 | Cc1ccc(-n2nc(C(C)(C)C)cc2NC(=O)Nc2ccc(OCCN3CCOCC3)c3ccccc23)cc1 [DORAMAPIMOD] | > 10 µM

system: LB373-MEL-D; test: cells; assay type: functional, cell-based, Homo sapiens; conditions: Homo sapiens, LB373-MEL-D;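 note: growth inhibition of the cell line, read out in a cell viability assay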
Description: SANGER: Inhibition of human LB373-MEL-D cell growth in a cell viability assay.

Row | SMILES | IC50
15 | Cc1ccc(-n2nc(C(C)(C)C)cc2NC(=O)Nc2ccc(OCCN3CCOCC3)c3ccccc23)cc1 [DORAMAPIMOD] | > 10 µM

system: LN-405; test: cells; assay type: functional, cell-based; conditions: Homo sapiens
Description: SANGER: Inhibition of human LN-405 cell growth in a cell viability assay.

Row | SMILES | IC50
16 | Cc1ccc(-n2nc(C(C)(C)C)cc2NC(=O)Nc2ccc(OCCN3CCOCC3)c3ccccc23)cc1 [DORAMAPIMOD] | > 10 µM

system: ME-180; test: cells; assay type: functional, cell-based; conditions: Homo sapiens;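 note: cell viability assay measuring growth inhibition of ME-180 cells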
Description: SANGER: Inhibition of human ME-180 cell growth in a cell viability assay.

Row | SMILES | IC50
17 | Cc1ccc(-n2nc(C(C)(C)C)cc2NC(=O)Nc2ccc(OCCN3CCOCC3)c3ccccc23)cc1 [DORAMAPIMOD] | > 10 µM

system: MKN-7; test: cells; assay type: functional, cell-based; conditions: Homo sapiens;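 note: growth inhibition of MKN-7 cells, read out with a cell viability assay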
Description: SANGER: Inhibition of human MKN7 cell growth in a cell viability assay.

Row | SMILES | IC50
18 | Cc1ccc(-n2nc(C(C)(C)C)cc2NC(=O)Nc2ccc(OCCN3CCOCC3)c3ccccc23)cc1 [DORAMAPIMOD] | > 10 µM

system: NCI-H1651; test: cells; assay type: functional, cell-based; conditions: Homo sapiens;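 note: Read-out is a cell viability assay, with IC50 expressing inhibition of NCI-H1651 cell growth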
Description: SANGER: Inhibition of human NCI-H1651 cell growth in a cell viability assay.

Row | SMILES | IC50
19 | Cc1ccc(-n2nc(C(C)(C)C)cc2NC(=O)Nc2ccc(OCCN3CCOCC3)c3ccccc23)cc1 [DORAMAPIMOD] | > 10 µM

system: NCI-H1793; test: cells; assay type: functional, cell-based; conditions: Homo sapiens;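 note: cell growth inhibition, read out by a cell viability assay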
Description: SANGER: Inhibition of human NCI-H1793 cell growth in a cell viability assay.

Row | SMILES | IC50
20 | Cc1ccc(-n2nc(C(C)(C)C)cc2NC(=O)Nc2ccc(OCCN3CCOCC3)c3ccccc23)cc1 [DORAMAPIMOD] | > 10 µM

system: NCI-H2030; test: cells; assay type: functional, cell-based; conditions: Homo sapiens;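 note: growth inhibition of human NCI-H2030 cells, read out by a cell viability assay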
Description: SANGER: Inhibition of human NCI-H2030 cell growth in a cell viability assay.

Row | SMILES | IC50
21 | Cc1ccc(-n2nc(C(C)(C)C)cc2NC(=O)Nc2ccc(OCCN3CCOCC3)c3ccccc23)cc1 [DORAMAPIMOD] | > 10 µM

system: NCI-H2122; test: cells; assay type: functional, cell-based; conditions: Homo sapiens;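 note: growth inhibition of the cells, read out with a cell viability assay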
Description: SANGER: Inhibition of human NCI-H2122 cell growth in a cell viability assay.

Row | SMILES | IC50
22 | Cc1ccc(-n2nc(C(C)(C)C)cc2NC(=O)Nc2ccc(OCCN3CCOCC3)c3ccccc23)cc1 [DORAMAPIMOD] | > 10 µM

system: NCI-H2452; test: cells; assay type: functional, cell-based; conditions: Homo sapiens;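 note: growth inhibition of NCI-H2452 cells, read out with a cell viability assay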
Description: SANGER: Inhibition of human NCI-H2452 cell growth in a cell viability assay.

Row | SMILES | IC50
23 | Cc1ccc(-n2nc(C(C)(C)C)cc2NC(=O)Nc2ccc(OCCN3CCOCC3)c3ccccc23)cc1 [DORAMAPIMOD] | > 10 µM

system: NCI-H596; test: cells; assay type: functional, cell-based; conditions: Homo sapiens;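 note: growth inhibition of NCI-H596 cells, read out with a cell viability assay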
Description: SANGER: Inhibition of human NCI-H596 cell growth in a cell viability assay.

Row | SMILES | IC50
24 | Cc1ccc(-n2nc(C(C)(C)C)cc2NC(=O)Nc2ccc(OCCN3CCOCC3)c3ccccc23)cc1 [DORAMAPIMOD] | > 10 µM

system: NCI-H661; test: cells; assay type: functional, cell-based; conditions: Homo sapiens;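 note: cell viability assay read-out, IC50 being the concentration that inhibits growth of the cells by half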
Description: SANGER: Inhibition of human NCI-H661 cell growth in a cell viability assay.

Row | SMILES | IC50
25 | Cc1ccc(-n2nc(C(C)(C)C)cc2NC(=O)Nc2ccc(OCCN3CCOCC3)c3ccccc23)cc1 [DORAMAPIMOD] | > 10 µM

system: PA-1; test: cells; assay type: functional, cell-based; conditions: Homo sapiens;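 note: IC50 for suppression of PA-1 cell proliferation, determined with a cell viability read-out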
Description: SANGER: Inhibition of human PA-1 cell growth in a cell viability assay.

Row | SMILES | IC50
26 | Cc1ccc(-n2nc(C(C)(C)C)cc2NC(=O)Nc2ccc(OCCN3CCOCC3)c3ccccc23)cc1 [DORAMAPIMOD] | > 10 µM

system: SK-HEP1; test: cells; assay type: functional, cell-based, SK-HEP-1; conditions: Homo sapiens;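 note: cell viability readout used to quantify reduction in proliferation of human SK-HEP-1 cells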
Description: SANGER: Inhibition of human SK-HEP-1 cell growth in a cell viability assay.

Row | SMILES | IC50
27 | Cc1ccc(-n2nc(C(C)(C)C)cc2NC(=O)Nc2ccc(OCCN3CCOCC3)c3ccccc23)cc1 [DORAMAPIMOD] | > 10 µM

system: SK-MEL-24; test: cells; assay type: functional, cell-based; conditions: Homo sapiens;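 note: growth inhibition read out by a cell viability assay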
Description: SANGER: Inhibition of human SK-MEL-24 cell growth in a cell viability assay.

Row | SMILES | IC50
28 | Cc1ccc(-n2nc(C(C)(C)C)cc2NC(=O)Nc2ccc(OCCN3CCOCC3)c3ccccc23)cc1 [DORAMAPIMOD] | > 10 µM

system: SW13; test: cells; assay type: functional, cell-based; conditions: Homo sapiens;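 note: IC50 is inhibition of SW13 cell growth, read out with a cell viability assay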
Description: SANGER: Inhibition of human SW13 cell growth in a cell viability assay.

Row | SMILES | IC50
29 | Cc1ccc(-n2nc(C(C)(C)C)cc2NC(=O)Nc2ccc(OCCN3CCOCC3)c3ccccc23)cc1 [DORAMAPIMOD] | > 10 µM

system: SW1573; test: cells; assay type: functional, cell-based; conditions: Homo sapiens;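 note: growth inhibition of SW1573 cells, read out with a cell viability assay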
Description: SANGER: Inhibition of human SW1573 cell growth in a cell viability assay.

Row | SMILES | IC50
30 | Cc1ccc(-n2nc(C(C)(C)C)cc2NC(=O)Nc2ccc(OCCN3CCOCC3)c3ccccc23)cc1 [DORAMAPIMOD] | > 10 µM

system: SW1783; test: cells; assay type: functional, cell-based; conditions: Homo sapiens;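 note: cell growth inhibition measured with a viability assay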
Description: SANGER: Inhibition of human SW1783 cell growth in a cell viability assay.

Row | SMILES | IC50
31 | Cc1ccc(-n2nc(C(C)(C)C)cc2NC(=O)Nc2ccc(OCCN3CCOCC3)c3ccccc23)cc1 [DORAMAPIMOD] | > 10 µM

system: 786-0; test: cells; assay type: functional, cell-based; conditions: Homo sapiens
Description: SANGER: Inhibition of human 786-0 cell growth in a cell viability assay.

Row | SMILES | IC50
32 | Cc1ccc(-n2nc(C(C)(C)C)cc2NC(=O)Nc2ccc(OCCN3CCOCC3)c3ccccc23)cc1 [DORAMAPIMOD] | > 10 µM

system: A2780; test: cells; assay type: functional, cell-based; conditions: Homo sapiens;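 note: growth inhibition of A2780 cells, read out with a cell viability assay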
Description: SANGER: Inhibition of human A2780 cell growth in a cell viability assay.

Row | SMILES | IC50
33 | Cc1ccc(-n2nc(C(C)(C)C)cc2NC(=O)Nc2ccc(OCCN3CCOCC3)c3ccccc23)cc1 [DORAMAPIMOD] | > 10 µM

system: A-375; test: cells; assay type: functional, cell-based; conditions: Homo sapiens;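 note: growth inhibition of A375 cells, read out with a cell viability assay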
Description: SANGER: Inhibition of human A375 cell growth in a cell viability assay.

Row | SMILES | IC50
34 | Cc1ccc(-n2nc(C(C)(C)C)cc2NC(=O)Nc2ccc(OCCN3CCOCC3)c3ccccc23)cc1 [DORAMAPIMOD] | > 10 µM

system: A673; test: cells; assay type: functional, cell-based; conditions: Homo sapiens;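 note: growth inhibition of human A673 cells, read out through a cell viability assay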
Description: SANGER: Inhibition of human A673 cell growth in a cell viability assay.

Row | SMILES | IC50
35 | Cc1ccc(-n2nc(C(C)(C)C)cc2NC(=O)Nc2ccc(OCCN3CCOCC3)c3ccccc23)cc1 [DORAMAPIMOD] | > 10 µM

system: ABC-1; test: cells; assay type: functional, cell-based; conditions: Homo sapiens;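 note: growth inhibition of human ABC-1 cells, read out by a cell viability assay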
Description: SANGER: Inhibition of human ABC-1 cell growth in a cell viability assay.

Row | SMILES | IC50
36 | Cc1ccc(-n2nc(C(C)(C)C)cc2NC(=O)Nc2ccc(OCCN3CCOCC3)c3ccccc23)cc1 [DORAMAPIMOD] | > 10 µM

system: BPH-1; test: cells; assay type: functional, cell-based; conditions: Homo sapiens;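 note: cell viability assay measuring growth inhibition of human BPH-1 cells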
Description: SANGER: Inhibition of human BPH-1 cell growth in a cell viability assay.

Row | SMILES | IC50
37 | Cc1ccc(-n2nc(C(C)(C)C)cc2NC(=O)Nc2ccc(OCCN3CCOCC3)c3ccccc23)cc1 [DORAMAPIMOD] | > 10 µM

system: BXPC-3; test: cells; assay type: functional, cell-based; conditions: Homo sapiens;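 note: growth inhibition of human BxPC-3 cells, read out by a cell viability assay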
Description: SANGER: Inhibition of human BxPC-3 cell growth in a cell viability assay.

Row | SMILES | IC50
38 | Cc1ccc(-n2nc(C(C)(C)C)cc2NC(=O)Nc2ccc(OCCN3CCOCC3)c3ccccc23)cc1 [DORAMAPIMOD] | > 10 µM

system: C-33-A; test: cells; assay type: functional, cell-based; conditions: Homo sapiens;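 note: cell viability assay measuring growth inhibition of C-33-A cells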
Description: SANGER: Inhibition of human C-33-A cell growth in a cell viability assay.

Row | SMILES | IC50
39 | Cc1ccc(-n2nc(C(C)(C)C)cc2NC(=O)Nc2ccc(OCCN3CCOCC3)c3ccccc23)cc1 [DORAMAPIMOD] | > 10 µM

system: CAL-33; test: cells; assay type: functional, cell-based; conditions: Homo sapiens;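 note: growth inhibition of CAL-33 cells, read out with a cell viability assay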
Description: SANGER: Inhibition of human CAL-33 cell growth in a cell viability assay.

Row | SMILES | IC50
40 | Cc1ccc(-n2nc(C(C)(C)C)cc2NC(=O)Nc2ccc(OCCN3CCOCC3)c3ccccc23)cc1 [DORAMAPIMOD] | > 10 µM

system: CAL-51; test: cells; assay type: functional, cell-based; conditions: Homo sapiens;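 note: human CAL-51 cell line, growth inhibition read out via a cell viability assay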
Description: SANGER: Inhibition of human CAL-51 cell growth in a cell viability assay.

Row | SMILES | IC50
41 | Cc1ccc(-n2nc(C(C)(C)C)cc2NC(=O)Nc2ccc(OCCN3CCOCC3)c3ccccc23)cc1 [DORAMAPIMOD] | > 10 µM

system: CAL-54; test: cells; assay type: functional, cell-based; conditions: Homo sapiens;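 note: growth inhibition of CAL-54 cells, read out by a viability measurement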
Description: SANGER: Inhibition of human CAL-54 cell growth in a cell viability assay.

Row | SMILES | IC50
42 | Cc1ccc(-n2nc(C(C)(C)C)cc2NC(=O)Nc2ccc(OCCN3CCOCC3)c3ccccc23)cc1 [DORAMAPIMOD] | > 10 µM

system: CAL-85-1; test: cells; assay type: functional, cell-based; conditions: Homo sapiens;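 note: growth inhibition of human CAL-85-1 cells, read out with a cell viability assay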
Description: SANGER: Inhibition of human CAL-85-1 cell growth in a cell viability assay.

Row | SMILES | IC50
43 | Cc1ccc(-n2nc(C(C)(C)C)cc2NC(=O)Nc2ccc(OCCN3CCOCC3)c3ccccc23)cc1 [DORAMAPIMOD] | > 10 µM

system: UMUC3; test: cells; assay type: functional, cell-based; conditions: Homo sapiens;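 note: growth inhibition of human UM-UC-3 cells, read out with a cell viability assay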
Description: SANGER: Inhibition of human UM-UC-3 cell growth in a cell viability assay.

Row | SMILES | IC50
44 | Cc1ccc(-n2nc(C(C)(C)C)cc2NC(=O)Nc2ccc(OCCN3CCOCC3)c3ccccc23)cc1 [DORAMAPIMOD] | > 10 µM

system: VM-CUB-1; test: cells; assay type: functional, cell-based; conditions: Homo sapiens;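 note: cell viability assay measuring growth inhibition of the human VM-CUB-1 cell line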
Description: SANGER: Inhibition of human VM-CUB-1 cell growth in a cell viability assay.

Row | SMILES | IC50
45 | Cc1ccc(-n2nc(C(C)(C)C)cc2NC(=O)Nc2ccc(OCCN3CCOCC3)c3ccccc23)cc1 [DORAMAPIMOD] | > 10 µM

system: YKG-1; test: cells; assay type: functional, cell-based; conditions: Homo sapiens;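 note: cell growth inhibition, read out with a viability assay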
Description: SANGER: Inhibition of human YKG-1 cell growth in a cell viability assay.

Row | SMILES | IC50
46 | Cc1ccc(-n2nc(C(C)(C)C)cc2NC(=O)Nc2ccc(OCCN3CCOCC3)c3ccccc23)cc1 [DORAMAPIMOD] | > 10 µM
